Assays:
Type in all cases: cell-based
Escherichia coli = test: Bacterio-attenuation test in contaminated CPA, photodynamic treatment at 365 nm
Protocol: (§1) Les bactéries sont injectées dans les échantillons à une concentration finale de 1 bactérie pour 50 000 plaquettes. Les bactéries sont mises en culture dans un bouillon Thyoglycolate-Resazurine (ref: 42074, Biomérieux Marcy l'Etoile, France) (0,5 mL de suspension bactérienne en bouillon ou une colonie sur gélose dans 9 mL de bouillon). Elles sont incubées 24 h à 37°C pour qu'elles soient en phase de croissance lors de leur utilisation. Avant leur utilisation, le bouillon de culture est centrifugé à 2500 g pendant 10 min. à 21°C, le culot est repris dans du NaCl 0,9 % et celui-ci est lavé 3 fois à 2500 g pendant 10 min. à 21 °C.
(§2) Le titre bactérien de la suspension lavée et diluée est évalué par une lecture de densité optique à 630 nm. Une dilution de la suspension bactérienne est ensuite réalisée pour obtenir une concentration finale de 1 bactérie pour 50 000 plaquettes.
(§3) Pour réaliser les tests de bactério-atténuation, les CPA dilués sont aliquotés dans la solution SSP (MacoPharma, Tourcoing, France) pour obtenir une concentration finale en protéines de 10 g/L dans des poches en PVC. Puis 1 mL de suspension bactérienne est injecté. Le volume final contenu dans les poches est de 8 mL. Le tout est homogénéisé pour un meilleur contact entre les plaquettes et les bactéries.
(§4) L'illumination se fait à l'aide d'une lampe UVA comportant deux tubes (réf. VL-215BL, Vilber Lourmat, France) génératrice de rayons UV 365 nm et de lumière visible d'une intensité de 108 µW/cm^2 à une distance de 1 m de l'échantillon. La lampe est disposée à une distance de 13 cm des poches à traitées. L'illumination se fait à 4°C. La lampe délivre une dose de 23 J/cm^2 en 1 h.
(§5) Après illumination, une numération bactérienne est réalisée pour mesurer la diminution du tire bactérien dans les poches traitées. Pour cela, 1 mL de la dilution la plus appropriée est étalée sur des géloses nutritives Trypcase-soja (ref : 43011, boîtes de 90 mm de diamètre, Biomérieux, Marcy l'Etoile, France). Les géloses sont ensuite incubées 24 h à 37 °C pour pouvoir effectuer un comptage. Les résultats sont exprimés en ufc/mL.
Des tests de bactério-atténuation ont été effectués sur E. coli. Les tests sont réalisés sur des CPA ajustés à 10 g/L de protéines. Le nombre de plaquettes par poche de 8 ml est de 4,7 10^9.
Les poches sont incubées 1 h à 37°C avant d'être irradiées à 365 nm (Fig. 6).
Sans incubation, les résultats sont les suivants (Fig. 7) : […]

plaquettes [1] = test: Platelet functionality: collagen aggregation test (thrombo-aggregometer, turbidimetry); settings: for % d'aggrégation: CPA 10 g/L proteins
Protocol: (§6) Dans cet exemple, deux tests ont été effectués afin d'évaluer la fonctionnalité des plaquettes en présence de différentes concentrations d'ALA après illumination à l'aide des lampes UVA (365 nm).
Le second test est un test d'agrégation au collagène. Ce test est réalisé à l'aide d'un thrombo-agrégomètre (SEFAM, Regulest, Fleurange, France). L'activation plaquettaire par un agoniste (collagène) est estimée in vitro par turbidimétrie, en enregistrant en continu à 37°C et sous agitation, la transmission d'un faisceau de lumière à travers la suspension plaquettaire. Le regroupement des plaquettes en amas de plus en plus volumineux s'accompagne d'un éclaircissement progressif du milieu. Les résultats sont rendus en pourcentage d'agrégation en fonction du temps, le 100% d'agrégation correspondant au plasma pauvre en plaquettes et le 0% d'agrégation correspondant à l'échantillon avant l'ajout de l'agoniste. L'enregistrement de la transmission lumineuse est déclenché au moment de l'ajout d'un faible volume de l'agoniste à l'échantillon. Ainsi, nous pouvons visualiser le temps de latence, le changement de forme des plaquettes puis l'agrégation qui peut être stable ou réversible.
(§7) Ces deux tests ont été réalisés sur un CPA ajusté à 10 g/L de protéines en présence de concentration croissante d'ALA après 1 h30 d'illumination à 365 nm.
(§8) Le même test a été réalisé sans illumination (1 h30 d'agitation douce à l'obscurité)
(§9) Un test d'agrégation et une inspection visuelle du tournoiement ont été réalisées sur un CPA ajusté à 10 g/L de protéines en présence de PpX sel disodique dans du NaOH 1 N 0,1 % (après 30 minutes d'illumination à 365 nm). Le nombre de plaquettes par poche de 8 ml est de 7,6.10^9.

Klebsiella pneumoniae = test: Bacterio-attenuation test in contaminated CPA, photodynamic treatment at 365 nm
Protocol: as §1, §2, §3, §4, §5
Des tests de bactério-atténuation ont été effectués sur Klebsiella pneumoniae. Les tests sont réalisés sur des CPA ajustés à 10 g/L de protéines. Le nombre de plaquettes par poche de 8 mL est de 10,5.10^9.
Les poches sont incubées 1h à température ambiante puis illuminées par irradiation à 365 nm (Fig. 4 et 5).

plaquettes [2] = test: Platelet functionality: visual inspection of swirling (tournoiement) of the CPA; settings: ALA 4 mM; CPA 10 g/L proteins; after 1 h30 illumination at 365 nm
From the text: as §6
Le premier test est la visualisation du tournoiement ou « swirling », c'est-à-dire l'inspection visuelle du CPA à travers une source lumineuse (phénomène lié à la présence de formes discoïdes dans la suspension plaquettaire).
as §7, §8, §9

Q: What does the source list for `NCC(=O)CCC(=O)O` [ALA, acide 5-aminolévulinique]?
A: titre bactérien E. Coli (Escherichia coli; ALA 5 mM, Incub 1h at 37°C): 231 10^-2 ufc/ml; titre bactérien E. Coli (Escherichia coli; ALA 5 mM, Incub 1h at 37°C then Irr 1h30 at 365 nm): 1 10^-2 ufc/ml; titre bactérien E. Coli (Escherichia coli; ALA 5 mM, Incub 1h at 37°C then Irr. 1h at 365 nm): 17 10^-2 ufc/ml; titre bactérien E. Coli (Escherichia coli; ALA 5 mM, T0, CPA 10 g/L proteins, series with incubation): 172 10^-2 ufc/ml; titre bactérien E. Coli (Escherichia coli; ALA 5 mM, T0, without incubation): 183 10^-2 ufc/ml; titre bactérien E. Coli (Escherichia coli; ALA 5 mM, without incubation, Irr 1 h30 at 365 nm): 2 10^-2 ufc/ml; titre bactérien E. Coli (Escherichia coli; ALA 5 mM, without incubation, Irr. 1h at 365 nm): 48 10^-2 ufc/ml; inactivation de E.coli (Escherichia coli; ALA (5 mM), even without incubation, irradiation at 365 nm): efficace; inactivation de E.coli (Escherichia coli; CPA irradiated 1 h and 1 h30 at 365 nm with ALA (5 mM), after 1 h incubation at 37°C): obtenue; % d'aggrégation (plaquettes [1]; ALA 1 mM, after 1 h30 illumination at 365 nm, collagen): 80%; % d'aggrégation (plaquettes [1]; ALA 1 mM, no illumination, 1 h30 in the dark, collagen): 84%; % d'aggrégation (plaquettes [1]; ALA 2 mM, after 1 h30 illumination at 365 nm, collagen): 69%; % d'aggrégation (plaquettes [1]; ALA 2 mM, no illumination, 1 h30 in the dark, collagen): 84%; % d'aggrégation (plaquettes [1]; ALA 3 mM, after 1 h30 illumination at 365 nm, collagen): 76%; % d'aggrégation (plaquettes [1]; ALA 3 mM, no illumination, 1 h30 in the dark, collagen): 82%; % d'aggrégation (plaquettes [1]; ALA 4 mM, after 1 h30 illumination at 365 nm, collagen): 53%; % d'aggrégation (plaquettes [1]; ALA 4 mM, no illumination, 1 h30 in the dark, collagen): 76%; % d'aggrégation (plaquettes [1]; ALA 5 mM, after 1 h30 illumination at 365 nm, collagen): 26%; % d'aggrégation (plaquettes [1]; ALA 5 mM, no illumination, 1 h30 in the dark, collagen): 78%; fonctionnalité des plaquettes (plaquettes [1]; illumination of CPA with too high a concentration of ALA): semble faire perdre de leur fonctionnalité aux plaquettes; titre bactérien Klebsiella (Klebsiella pneumoniae; ALA 1 mM, Incub. 1 h at room temperature): 187 10^-2 ufc/ml; titre bactérien Klebsiella (Klebsiella pneumoniae; ALA 1 mM, Incub. 1 h then Irr. 1h30 at 365 nm): 5 10^-2 ufc/ml; titre bactérien Klebsiella (Klebsiella pneumoniae; ALA 1 mM, Incub. 1 h then Irr. 1 h at 365 nm): 14 10^-2 ufc/ml; titre bactérien Klebsiella (Klebsiella pneumoniae; ALA 1 mM, T0, CPA 10 g/L proteins): 201 10^-2 ufc/ml; titre bactérien Klebsiella (Klebsiella pneumoniae; ALA 2 mM, Incub 1 h at room temperature): 163 10^-2 ufc/ml; titre bactérien Klebsiella (Klebsiella pneumoniae; ALA 2 mM, Incub 1 h then Irr 1 h30 at 365 nm): 1 10^-2 ufc/ml; titre bactérien Klebsiella (Klebsiella pneumoniae; ALA 2 mM, Incub 1 h then Irr. 1 h at 365 nm): 9 10^-2 ufc/ml; titre bactérien Klebsiella (Klebsiella pneumoniae; ALA 2 mM, T0, CPA 10 g/L proteins): 159 10^-2 ufc/ml; titre bactérien Klebsiella (Klebsiella pneumoniae; ALA 3 mM, Incub 1 h at room temperature): 168 10^-2 ufc/ml; titre bactérien Klebsiella (Klebsiella pneumoniae; ALA 3 mM, Incub 1 h then Irr 1 h30 at 365 nm): 1 10^-2 ufc/ml; titre bactérien Klebsiella (Klebsiella pneumoniae; ALA 3 mM, Incub 1 h then Irr. 1 h at 365 nm): 8 10^-2 ufc/ml; titre bactérien Klebsiella (Klebsiella pneumoniae; ALA 3 mM, T0, CPA 10 g/L proteins): 179 10^-2 ufc/ml; titre bactérien Klebsiella (Klebsiella pneumoniae; ALA 4 mM, Incub 1h at room temperature): 192 10^-2 ufc/ml; titre bactérien Klebsiella (Klebsiella pneumoniae; ALA 4 mM, Incub 1h then Irr 1h30 at 365 nm): 1 10^-2 ufc/ml; titre bactérien Klebsiella (Klebsiella pneumoniae; ALA 4 mM, Incub 1h then Irr. 1h at 365 nm): 6 10^-2 ufc/ml; titre bactérien Klebsiella (Klebsiella pneumoniae; ALA 4 mM, T0, CPA 10 g/L proteins): 183 10^-2 ufc/ml; titre bactérien Klebsiella (Klebsiella pneumoniae; ALA 5 mM, Incub. 1h at room temperature): 175 10^-2 ufc/ml; titre bactérien Klebsiella (Klebsiella pneumoniae; ALA 5 mM, Incub. 1h then 'Irr 1h 1h30' at 365 nm): 0 10^-2 ufc/ml; titre bactérien Klebsiella (Klebsiella pneumoniae; ALA 5 mM, Incub. 1h then 'Irr.' at 365 nm): 4 10^-2 ufc/ml; titre bactérien Klebsiella (Klebsiella pneumoniae; ALA 5 mM, T0, CPA 10 g/L proteins): 178 10^-2 ufc/ml; inactivation de K. pneumoniae (Klebsiella pneumoniae; CPA irradiated 1h and 1 h30 at 365 nm with ALA 1-5 mM, no significant difference between concentrations): obtenue; Swirling (plaquettes [2]): Faible+

Q: Which “inactivation de E.coli” value (Escherichia coli; PpIX 10 µM, irradiation at 365 nm) does the source give for protoporphyrine IX [PpIX] here?
A: inefficace

Q: What about the “titre bactérien E. Coli” value (Escherichia coli; PpIX 10 µm, T0, without incubation) of the same compound?
A: 166 10^-2 ufc/ml

Q: What about the “titre bactérien E. Coli” value (Escherichia coli; PpIX 10 µm, without incubation, Irr 1 h30 at 365 nm) of the same compound?
A: 108 10^-2 ufc/ml

Q: What about the “titre bactérien E. Coli” value (Escherichia coli; PpIX 10 µm, without incubation, Irr. 1h at 365 nm) of the same compound?
A: 171 10^-2 ufc/ml

Q: And the “% d'aggrégation” value (plaquettes [1]; PpIX 1 µM, after 30 minutes illumination at 365 nm)?
A: 53%

Q: And the “% d'aggrégation” value (plaquettes [1]; PpIX 5µM, after 30 minutes illumination at 365 nm)?
A: 16%

Q: What about the “% d'aggrégation” value (plaquettes [1]; PpIX 10 µM, after 30 minutes illumination at 365 nm) of the same compound?
A: 16%

Q: And the “% d'aggrégation” value (plaquettes [1]; PpIX 20 µM, after 30 minutes illumination at 365 nm)?
A: 15%

Q: What about the “inactivation de K. pneumoniae” value (Klebsiella pneumoniae; PpIX 10µM, same conditions (incubation 1h, irradiation 1h and 1h30 at 365 nm)) of the same compound?
A: ne permet pas l'inactivation

Q: What about the “titre bactérien Klebsiella” value (Klebsiella pneumoniae; PpIX 10 µM, Incub 1h at room temperature) of the same compound?
A: 162 10^-2 ufc/ml

Q: What about the “titre bactérien Klebsiella” value (Klebsiella pneumoniae; PpIX 10 µM, Incub 1h then Irr 1h30 at 365 nm) of the same compound?
A: 203 10^-2 ufc/ml

Q: What about the “titre bactérien Klebsiella” value (Klebsiella pneumoniae; PpIX 10 µM, Incub 1h then Irr. 1h at 365 nm) of the same compound?
A: 178 10^-2 ufc/ml

Q: What about the “titre bactérien Klebsiella” value (Klebsiella pneumoniae; PpIX 10 µM, T0, CPA 10 g/L proteins) of the same compound?
A: 181 10^-2 ufc/ml

— patent EP1641451B1, “METHOD FOR PHOTODYNAMIC INACTIVATION OF PATHOGENS USING ALA” (MACO PHARMA, priority 2003, dated 2005)
